Data: ChEMBL document CHEMBL1201862, “PubChem BioAssay data set” (2004)
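A five-concentration, 48-hour dose response in 96-well plates underlies each endpoint, interpolated linearly between surrounding concentrations. Abbreviation: GI50, concentration required for 50% inhibition of growth.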 The source made the active and inactive calls. No stated cut-off is given here; in the data, active = GI50 up to about 1.1 µM and inactive = higher.

Tests used:
Test in all cases: NCI tumour cell line growth inhibition, 48 h
[1] = system: SF-539
[2] = system: MDA-MB-231
[3] = system: KM12
[4] = system: SF-268
[5] = system: COLO 205
[6] = system: SW-620
[7] = system: DU-145
[8] = system: CAKI-1
[9] = system: PC-3
[10] = system: SK-OV-3
[11] = system: HCT-15
[12] = system: NCI/ADR-RES
[13] = system: OVCAR-3
[14] = system: K562
[15] = system: Malme-3M
[16] = system: UACC-62
[17] = system: Hs-578T
[18] = system: SN12C
[19] = system: M14
[20] = system: SK-MEL-28

Measured: GI50

COc1ccc(-c2nc(O)c3ccccc3n2)cc1OC
inactive: [1] 37.8 µM | [2] 24.4 µM | [3] > 100 µM | [4] 25.2 µM | [5] > 100 µM | [6] > 100 µM | [7] > 100 µM | [8] > 100 µM | [9] > 100 µM | [10] 34.2 µM | [12] 28.2 µM | [13] > 100 µM | [14] > 100 µM | [15] > 100 µM | [16] > 100 µM | [17] 29.2 µM | [18] 26.5 µM | [19] > 100 µM
50 µM: [11]

Cc1cc2c(cc1Cl)SC(NNC(=O)c1ccccc1)=NS2(=O)=O
inactive: [1] > 10 µM | [20] > 10 µM | [2] > 10 µM | [3] > 10 µM | [4] > 10 µM | [5] > 10 µM | [6] > 10 µM | [7] > 10 µM | [8] > 10 µM | [9] > 10 µM | [10] > 10 µM | [12] > 10 µM | [13] > 10 µM | [14] > 10 µM | [15] > 10 µM | [16] > 10 µM | [17] > 10 µM | [18] > 10 µM | [19] > 10 µM
> 10 µM: [11]

C1CNCCNCCN1
inactive: [1] 26.2 µM | [20] > 100 µM | [2] > 100 µM | [3] > 100 µM | [4] > 100 µM | [5] > 100 µM | [6] > 100 µM | [7] > 100 µM | [8] > 100 µM | [9] > 100 µM | [12] > 100 µM | [13] > 100 µM | [14] > 100 µM | [16] > 100 µM | [17] > 100 µM | [18] > 100 µM | [19] > 100 µM
> 100 µM: [11]

C[N+](C)(N)Cc1nc(-c2ccc(Cl)cc2)no1
inactive: [1] > 100 µM | [20] > 100 µM | [2] > 100 µM | [3] > 100 µM | [5] > 100 µM | [6] > 100 µM | [7] > 100 µM | [8] > 100 µM | [9] > 100 µM | [10] > 100 µM | [12] > 100 µM | [13] > 100 µM | [14] 44.2 µM | [15] > 100 µM | [16] > 100 µM | [17] > 100 µM | [18] > 100 µM | [19] > 100 µM
> 100 µM: [11]

Cc1c(C(=O)OCc2ccccc2)[n+]([O-])c2ccccc2[n+]1[O-]
40.9 µM: [11]
inactive: [1] 42.1 µM | [20] 66.1 µM | [2] 20.8 µM | [3] 28.1 µM | [4] 34.7 µM | [5] 18.5 µM | [7] 19.9 µM | [8] 24.5 µM | [9] 23.1 µM | [10] 28 µM | [12] 26.2 µM | [13] 30.3 µM | [14] 37.6 µM | [16] 25.6 µM | [17] 30.1 µM | [18] 31.3 µM | [19] 32.1 µM

C=CCN(C(=O)CNC(=O)C(F)(F)F)c1cc(OCc2ccccc2)c2c(c1)c(C)cn2S(=O)(=O)c1ccccc1
inactive: [1] > 100 µM | [20] > 100 µM | [2] > 24.1 µM | [3] 17.6 µM | [4] 6.59 µM | [5] 8.02 µM | [7] > 100 µM | [8] > 31 µM | [9] 5.96 µM | [10] > 100 µM | [12] > 100 µM | [13] > 49.5 µM | [14] > 23.9 µM | [15] > 100 µM | [16] 6.76 µM | [17] > 100 µM | [18] > 100 µM | [19] > 100 µM
> 100 µM: [11]

CCc1cc2c(c3c1CCCC3=O)CC1(C2)Cc2cc(CC)c3c(c2C1)C(=O)CCC3
> 100 µM: [11]
inactive: [1] > 100 µM | [20] > 100 µM | [2] 36.5 µM | [3] 47.2 µM | [4] > 100 µM | [5] > 100 µM | [6] > 100 µM | [7] > 100 µM | [8] 89.5 µM | [9] 46.5 µM | [10] > 100 µM | [12] > 100 µM | [13] 86.3 µM | [14] 65.9 µM | [15] 25.3 µM | [17] > 100 µM | [18] > 100 µM | [19] > 100 µM

CC(=O)O[C@@H]1[C@H](C(C)C)[C@@H](OC(C)=O)C/C(C)=C/CC[C@]2(C)O[C@@H]12
inactive: [20] > 100 µM | [2] > 100 µM | [3] > 100 µM | [4] > 100 µM | [5] > 100 µM | [6] > 100 µM | [7] > 100 µM | [8] > 100 µM | [9] > 100 µM | [10] > 100 µM | [12] > 100 µM | [13] > 100 µM | [14] > 100 µM | [15] > 100 µM | [16] > 100 µM | [17] > 100 µM | [18] > 100 µM | [19] > 100 µM
> 100 µM: [11]

O=c1c2ccccc2oc2c1ccc1ncccc12
11.9 µM: [11]
inactive: [1] 19.6 µM | [20] 23 µM | [2] 26.8 µM | [3] 24.2 µM | [4] 17.2 µM | [5] 17.3 µM | [6] 10.7 µM | [7] 4.69 µM | [8] 3.34 µM | [9] 22.4 µM | [10] 6.38 µM | [12] 10.4 µM | [13] 18 µM | [14] 24.7 µM | [15] 14.8 µM | [16] 11 µM | [17] 11.9 µM | [18] 10.6 µM

O=C(c1ccccc1)N1OCCC1Nc1ccc(Br)cc1 (centres undefined)
active: [6] 0.818 µM | [14] 0.423 µM
0.604 µM: [11]
inactive: [1] 2.08 µM | [20] > 10 µM | [2] > 10 µM | [4] 5.21 µM | [5] 1.81 µM | [7] 6.24 µM | [8] 4.03 µM | [9] 2.04 µM | [10] > 10 µM | [12] 5.43 µM | [13] > 10 µM | [15] 3.34 µM | [17] > 10 µM | [18] > 10 µM | [19] 4.99 µM

O=C1/C(=C/c2ccccc2)CCCC1CN1CCCCC1 (centres undefined)
2.04 µM: [11]
inactive: [1] 3.12 µM | [20] 1.97 µM | [2] 2 µM | [3] 1.19 µM | [4] 1.78 µM | [5] 3 µM | [6] 1.33 µM | [7] 14.3 µM | [8] 1.81 µM | [9] 11.4 µM | [10] 17.2 µM | [12] 3.24 µM | [13] 1.71 µM | [15] 1.82 µM | [16] 6.53 µM | [17] 2.94 µM | [18] 5.9 µM | [19] 1.89 µM

CCN(CC)C(=S)SC(C(=O)Nc1nnc(-c2ccccc2)o1)c1ccccc1 (centres undefined)
inactive: [1] 25.8 µM | [20] 17.9 µM | [2] 34.1 µM | [3] 20.2 µM | [5] 30.3 µM | [6] 28.7 µM | [7] 17.9 µM | [8] 19.4 µM | [9] 19.3 µM | [10] 32.4 µM | [12] 4.24 µM | [13] 15.2 µM | [14] 15.7 µM | [15] 20.4 µM | [17] 40.3 µM | [18] 10.3 µM | [19] 16.1 µM
5.24 µM: [11]

Cc1noc(-c2ccc(C(=O)O)[nH]2)c1Br
> 100 µM: [11]
inactive: [20] > 100 µM | [2] > 100 µM | [3] > 100 µM | [4] 46.1 µM | [5] 26.1 µM | [6] 68.9 µM | [7] 37.9 µM | [8] 34.2 µM | [9] > 100 µM | [10] 38.6 µM | [12] 50.5 µM | [13] 23.4 µM | [14] > 100 µM | [15] 69.8 µM | [16] 64.6 µM | [17] 42.3 µM | [19] > 100 µM

N/C(=N\c1ccccc1)c1ccccc1N
> 100 µM: [11]
inactive: [20] 19.6 µM | [2] > 100 µM | [3] > 100 µM | [4] > 100 µM | [5] > 100 µM | [6] > 100 µM | [7] > 100 µM | [8] > 100 µM | [9] > 100 µM | [10] > 100 µM | [12] > 100 µM | [13] > 100 µM | [14] > 100 µM | [16] > 100 µM | [17] > 100 µM | [19] > 100 µM

N#Cc1c(Cl)cccc1Oc1ccc(S(=O)(=O)N/C(=N\O)Nc2ccc(Cl)cc2)cc1
inactive: [1] 17.7 µM | [20] 19.9 µM | [2] 16.3 µM | [3] 17.2 µM | [4] 19.9 µM | [5] 18.2 µM | [6] 17.6 µM | [7] 18.8 µM | [8] 15.5 µM | [9] 16.4 µM | [12] 20.7 µM | [13] 15.8 µM | [14] 24.2 µM | [15] 19.2 µM | [16] 15.5 µM | [17] 27.4 µM | [18] 14.8 µM | [19] 15.7 µM
17.3 µM: [11]
